Results reported in article PMC11490426, “Structure-activity relationship of amino acid analogs to probe the binding pocket of sodium-coupled neutral amino acid transporter SNAT2” (Amino Acids, 2024).
Entries after “also recorded” stand apart in the source; their conditions may differ. Structures can show the parent of a compound that is named as a salt. Where two headings read alike, the source gives them in different places. Each block holds one compound with its values, some of them ahead of it.

How the values were obtained:
SNAT2 [1] = target: T1, SNAT2 (Homo sapiens, UniProt Q96QD8); experiment: Inhibition of SNAT2-mediated 3H-glycine uptake in hyperosmotically treated PC-3 cells; assay type: cell-based; settings: for inhibition of SNAT2-mediated 3H-glycine uptake / affinity for SNAT2: pH 7.4, result in words
T1 construct: hyperosmotically treated PC-3 cells, known to upregulate SNAT2; endogenous in cells; host or cells: PC-3 prostate cells exposed to hyperosmotic medium for 24 h
T1 sequence (Q96QD8 1-506): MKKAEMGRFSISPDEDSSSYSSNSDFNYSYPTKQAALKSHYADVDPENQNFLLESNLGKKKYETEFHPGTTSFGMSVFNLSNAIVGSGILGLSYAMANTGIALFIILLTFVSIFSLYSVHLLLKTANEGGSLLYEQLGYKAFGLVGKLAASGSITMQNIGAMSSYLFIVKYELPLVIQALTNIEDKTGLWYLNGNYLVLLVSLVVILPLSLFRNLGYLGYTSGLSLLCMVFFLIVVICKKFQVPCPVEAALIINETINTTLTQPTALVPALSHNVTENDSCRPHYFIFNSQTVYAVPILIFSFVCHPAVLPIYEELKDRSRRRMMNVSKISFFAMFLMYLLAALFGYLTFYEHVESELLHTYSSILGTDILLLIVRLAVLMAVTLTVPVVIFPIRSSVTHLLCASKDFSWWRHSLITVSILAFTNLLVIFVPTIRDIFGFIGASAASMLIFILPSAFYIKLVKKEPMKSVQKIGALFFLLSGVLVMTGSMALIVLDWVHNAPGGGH
Experimental: Where Y is the % uptake, X is the concentration of the inhibitor, Top and Bottom are the top and bottom plateau respectively, and IC50 is the half maximal inhibitory concentration. These studies were performed in at least 3 independent cell passages (n = 3) and a curve was defined for each independent passage. However, for each compound, the top and bottom were constrained to be the same amongst the different cell passages.

SNAT2 [2] = target: T1, SNAT2; experiment: FLIPR membrane potential (FMP) assay in PC-3 cells; assay type: cell-based; settings: for response in the FMP assay (stimulation of SNAT2 activity) / influence on fluorescence intensity in the FMP assay: result in words; for influence on fluorescence intensity in the FMP assay: 20 mM
Experimental: PC-3 cells exposed to hyperosmotic media for 24 h were used to identify SNAT2 substrates in the FMP assay. The media was aspirated, and the cells were preincubated in HBSS + for 10 min at 37 °C and 220 rpm. Then the buffer was aspirated, and cells were then incubated in 50 µL HBSS + containing 0.55 mg ⋅ mL^− 1 (1x) FMP probe (Blue component A from Molecular Devices, San Jose, CA, USA) for 30 min at 37 °C and 220 rpm. […] First, the baseline was measured for 30 s by measuring each well every 3 s. The plate was then removed from the reader and 50 µL of substrate solutions containing 0.55 mg ⋅ mL^− 1 FMP probe was added. These solutions were prepared by mixing equal parts solution containing 2x FMP probe and solutions containing 4x the final concentration of substrate. […] Following this, the baseline of the next column was measured and followed the same procedure as just described.
For the FMP data, the baseline was defined as the mean fluorescence of the first data point before substrate addition. The baseline of each well was then subtracted from the data point to get the ΔF. Plotting ΔF as a function of time and calculating the area under the curve (AUC) after substrate addition was used as a measure of SNAT2 activity.

SNAT2 [3] = target: T1, SNAT2; set-up: method as in Jakobsen et al. [2023]; Nielsen et al. [2022]; settings: hyperosmotically treated PC-3 cells; ref Jakobsen et al. [2023]; Nielsen et al. [2022]; cited from earlier work
SNAT2 [4] = target: T1, SNAT2; experiment: FLIPR membrane potential (FMP) assay in PC-3 cells; assay type: cell-based; settings: isoosmotically treated PC-3 cells
SNAT2 [5] = target: T1, SNAT2; experiment: Intracellular amino acids and analogs quantified by OPA derivatization and HPLC-Fl after uptake in PC-3 cells; assay type: cell-based; settings: 30 min uptake; for fold change of intracellular accumulation in absence vs presence of 10 mM L-glutamine: pH 7.4
Experimental: Derivatization of AAs and analogs using o-phthalaldehyde (OPA) and 2-mercaptoethanol (2-ME) to make fluorescent derivatives was used to measure the intracellular amounts of AAs and analogs following uptake in hyperosmotically treated PC-3 cells. Before starting the experiment, the medium was aspirated, and the cells were preincubated in HBSS + for 15 min at 37 °C and 220 rpm. The cells were then incubated with 500 µL HBSS+ (background) or HBSS + containing AAs or analogs at given concentrations for 30 min at 37 °C and 220 rpm. After aspirating the donor solutions, the cells were washed thrice with 500 µL of ice-cold PBS while keeping the cells on ice. 200 µL of ice-cold 1x-trypsin was added to each well and allowed to distribute for 20–30 min while keeping the cells on ice. The plate was then transferred to an incubating microplate shaker at 37 °C and 220 rpm for about 8 min or until the cells had detached. 300 µL of ice-cold PBS was added to each well to resuspend the cells and transfer them to centrifuge tubes. The cells were centrifuged at 1000 G for 5 min (4 °C), the supernatant was removed, the cells were resuspended in 300 µL ice-cold PBS, and then centrifuged again at 1000 G for 5 min (4 °C). After removing the supernatant, the cell pellet was lysed by adding 100 µL of 80% methanol (20% ultrapure water) and placing the tubes in an ultrasonic bath for 10 min. The tubes were then centrifuged at 15,000 G for 15 min (4 °C) and the resulting supernatant was used for analysis.
The OPA reagent was prepared by spiking with 2 µL 2-ME per mL of OPA regent and was considered stable for use within one day. 10 µL of the cell samples or standards containing a mixture of the AAs and analogs of interest were placed in HPLC vials with 100 µL inserts. […] The autosampler kept the samples at 10 °C and the pretreatment function was used to automatically mix the samples with 10 µL of the OPA reagent and wait 4 min before loading 2 µL onto a YMC-Triart C18 column (75 × 3.0 mm, 1.9 μm, Mikrolab Aarhus, Viby J, Denmark). […] The fluorescence detector was set to excite at 350 nm and detect at 450 nm.
The resulting chromatograms were integrated and the area under the curve (AUC) of the standard samples was used to generate standard curves to determine the concentration of AAs and analogs in the cell samples. […] Amino acid levels detected in the background cell samples were subtracted from the other cell samples.

[6] = hyperosmotically treated PC-3 cells, 5 min uptake of 11.1 nM 3H-glycine, pH 7.4, read-out: IC50
[7] = 3 mM compound, hyperosmotically treated PC-3 cells
[8] = hyperosmotically treated PC-3 cells
[9] = 10 mM compound, hyperosmotically treated PC-3 cells
[10] = 20 mM compound, hyperosmotically treated PC-3 cells

IC50 (SNAT2 [1]; [6]): 6600 µM
SMILES: C[N+](C)(C)CC(=O)O [Betaine, betaine]
reduction of 3H-glycine uptake (SNAT2 [3]): ~86%

IC50 (SNAT2 [1]; [6]): 420 µM | AUC of fluorescence response-time curve (SNAT2 [2]; [9]): 21.1 ± 0.6 10^5 RFU ∙ s | AUC, % of 10 mM L-alanine (SNAT2 [2]; [9]): 95.4 ± 2.5% | response in the FMP assay (stimulation of SNAT2 activity) (SNAT2 [2]; [8]): substrates of SNAT2
SMILES: CCOC(=O)[C@H](C)N [L-Alanine ethyl ester, L-alanine ethyl ester hydrochloride]

IC50 (SNAT2 [1]; [6]): 330 µM | AUC of fluorescence response-time curve (SNAT2 [2]; [9]): 23.5 ± 0.8 10^5 RFU ∙ s | AUC, % of 10 mM L-alanine (SNAT2 [2]; [9]): 106.6 ± 3.8% | response in the FMP assay (stimulation of SNAT2 activity) (SNAT2 [2]; [8]): substrates of SNAT2
SMILES: COC(=O)[C@H](C)N [L-Alanine methyl ester, L-alanine methyl ester hydrochloride]

IC50 (SNAT2 [1]; [6]): 170 µM | AUC of fluorescence response-time curve (SNAT2 [2]; [9]): 22.1 ± 0.9 10^5 RFU ∙ s | AUC, % of 10 mM L-alanine (SNAT2 [2]; [9]): 100 ± 3.9% | EC50 (SNAT2 [2]; [8]): 245 µM | EC50 (SNAT2 [4]): 138 µM
SMILES: C[C@H](N)C(=O)O [L-Alanine, L-alanine]
inhibition of 3H-glycine uptake at different pH levels (SNAT2 [1]; pH 6.8, 7.4 and 8.0, 0.4 mM L-alanine benzyl ester or 0.2 mM L-alanine, two-way ANOVA): no significant differences in inhibition at the different pH levels

IC50 (SNAT2 [1]; [6]): 250 µM | AUC of fluorescence response-time curve (SNAT2 [2]; [9]): 25.9 ± 1.4 10^5 RFU ∙ s | AUC, % of 10 mM L-alanine (SNAT2 [2]; [9]): 117.5 ± 6.2% | response in the FMP assay (stimulation of SNAT2 activity) (SNAT2 [2]; [8]): substrates of SNAT2
SMILES: N[C@@H](CCO)C(=O)O [L-Homoserine, L-homoserine]

AUC of fluorescence response-time curve (SNAT2 [2]; [9]): 24.4 ± 1.3 10^5 RFU ∙ s | AUC, % of 10 mM L-alanine (SNAT2 [2]; [9]): 110.4 ± 6.1% | response in the FMP assay (stimulation of SNAT2 activity) (SNAT2 [2]; [8]): substrates of SNAT2
SMILES: CCCC[C@H](N)C(=O)O [L-Norleucine, L-norleucine]

IC50 (SNAT2 [1]; [6]): 460 µM | AUC of fluorescence response-time curve (SNAT2 [2]; [9]): 24 ± 0.9 10^5 RFU ∙ s | AUC, % of 10 mM L-alanine (SNAT2 [2]; [9]): 108.6 ± 4.2% | fold change of intracellular accumulation in absence vs presence of 10 mM L-glutamine (SNAT2 [5]; 0.45 mM compound): 4.1 fold
SMILES: N[C@@H](CO)C(=O)O [L-Serine, L-serine]

inhibition of SNAT2-mediated 3H-glycine uptake / affinity for SNAT2 (SNAT2 [1]; [8]): potency is lost
SMILES: C[C@H](N)CO [L-alaninol]

inhibition of SNAT2-mediated 3H-glycine uptake / affinity for SNAT2 (SNAT2 [1]; [8]): limited affinity
SMILES: NCCCC[C@H](N)C(=O)O [L-lysine, L-lysine monohydrochloride]

inhibition of SNAT2-mediated 3H-glycine uptake / affinity for SNAT2 (SNAT2 [1]; [8]): relatively poor at inhibiting SNAT2
SMILES: N[C@@H](Cc1ccccc1)C(=O)O [L-phenylalanine]

IC50 (SNAT2 [1]; [6]): 23000 µM | IC50 (SNAT2 [1]; hyperosmotically treated PC-3 cells, -log transformed IC50, read-out: pIC50 ± SEM (converted)): 25100 µM
SMILES: CN(C)CC(=O)O [N,N-Dimethylglycine, N,N-dimethylglycine hydrochloride]

IC50 (SNAT2 [1]; [6]): 710 µM
SMILES: CNCC(=O)O [Sarcosine, sarcosine]

AUC of fluorescence response-time curve (SNAT2 [2]; [10]): -1.0 ± 0.2 10^5 RFU ∙ s | AUC, % of 10 mM L-alanine (SNAT2 [2]; [10]): -4.7 ± 0.7%
SMILES: NCCS(=O)(=O)O [Taurine, taurine]
influence on fluorescence intensity in the FMP assay (SNAT2 [2]): did not lead to an increase in fluorescence; also recorded: little influence on the fluorescence intensity

inhibition of SNAT2-mediated 3H-glycine uptake / affinity for SNAT2 (SNAT2 [1]; [8]): potency is lost
SMILES: Cl.NCC(N)=O [glycinamide, glycinamide hydrochloride]

IC50 (SNAT2 [1]; [6]): 680 µM | AUC of fluorescence response-time curve (SNAT2 [2]; [7]): 1.7 ± 0.4 10^5 RFU ∙ s | AUC, % of 10 mM L-alanine (SNAT2 [2]; [7]): 7.8 ± 1.9% | fold change of intracellular accumulation in absence vs presence of 10 mM L-glutamine (SNAT2 [5]; 0.7 mM compound): 5.4 fold | level of intracellular accumulation (SNAT2 [5]; result in words): relatively low accumulation
SMILES: N[C@@H](CCC(=O)OCc1ccccc1)C(=O)O [γ-Benzyl L-glutamate, γ-benzyl L-glutamate]
response in the FMP assay (stimulation of SNAT2 activity) (SNAT2 [2]; [8]): little or no stimulation of SNAT2 activity

More lines, now with the values behind:

SMILES: N[C@@H](CC1CCCCC1)C(=O)O [3-Cyclohexyl-L-alanine, 3-cyclohexyl-L-alanine]
IC50 (SNAT2 [1]; [6]): 630 µM | AUC of fluorescence response-time curve (SNAT2 [2]; [7]): 21.9 ± 0.5 10^5 RFU ∙ s | AUC, % of 10 mM L-alanine (SNAT2 [2]; [7]): 99.2 ± 2.4% | response in the FMP assay (stimulation of SNAT2 activity) (SNAT2 [2]; [8]): substrates of SNAT2

SMILES: CC(=O)C(C)N.Cl (centres unmarked) [3-aminobutan-2-one, 3-Aminobutan-2-one hydrochloride]
inhibition of SNAT2-mediated 3H-glycine uptake / affinity for SNAT2 (SNAT2 [1]; [8]): retains some affinity for SNAT2

SMILES: NCC(=O)O [Glycine, glycine]
IC50 (SNAT2 [1]; [6]): 520 µM | pIC50 ± SEM (SNAT2 [1]; hyperosmotically treated PC-3 cells, -log transformed IC50): [3.3 ± 0.11]

SMILES: C[C@H](N)C(=O)OC(C)(C)C [L-Alanine tert-butyl ester, L-alanine tert-butyl ester hydrochloride]
IC50 (SNAT2 [1]; [6]): 4100 µM

SMILES: N=C(N)NCCC[C@H](N)C(=O)O [L-Arginine, L-arginine hydrochloride]
AUC of fluorescence response-time curve (SNAT2 [2]; [10]): -0.97 ± 0.3 10^5 RFU ∙ s | AUC, % of 10 mM L-alanine (SNAT2 [2]; [10]): -4.4 ± 1.2% | influence on fluorescence intensity in the FMP assay (SNAT2 [2]): little influence on the fluorescence intensity

SMILES: O=C(O)[C@@H]1CCN1 [L-Azetidine-2-carboxylic acid, L-azetidine-2-carboxylic acid]
IC50 (SNAT2 [1]): 660 µM

SMILES: O=C(O)[C@@H]1CCCCN1 [L-Pipecolinic acid, L-pipecolinic acid]
IC50 (SNAT2 [1]; [6]): 2900 µM | AUC of fluorescence response-time curve (SNAT2 [2]; [9]): 18.1 ± 0.2 10^5 RFU ∙ s | AUC, % of 10 mM L-alanine (SNAT2 [2]; [9]): 81.9 ± 0.8% | response in the FMP assay (stimulation of SNAT2 activity) (SNAT2 [2]; [8]): substrates of SNAT2

SMILES: O=C(O)[C@@H]1CCCN1 [L-Proline, L-proline]
IC50 (SNAT2 [1]; [6]): 640 µM

SMILES: N[C@@H](CCC(=O)O)C(=O)O [L-glutamate, L-glutamic acid]
inhibition of SNAT2-mediated 3H-glycine uptake / affinity for SNAT2 (SNAT2 [1]; [8]): limited affinity

SMILES: N[C@H](C(=O)O)c1ccc(O)cc1 [oxfenicine, Oxfenicine]
inhibition of SNAT2-mediated 3H-glycine uptake / affinity for SNAT2 (SNAT2 [1]; [8]): relatively poor at inhibiting SNAT2

SMILES: O=C(O)c1ccccn1 [picolinic acid]
Hill slope of concentration-response curve (SNAT2 [1]; [8]): -4.2 | IC50 (SNAT2 [1]; [6]): 5600 µM

SMILES: O=C(O)[C@@H]1C[C@@H](O)CN1 [trans-4-Hydroxy-L-proline, trans-4-hydroxy-L-proline]
IC50 (SNAT2 [1]): 3500 µM
